Measurements as given in patent US6630124B1, “Combination therapy with VIP antagonist” (Ramot-University Authority for Applied Research and …, priority 1998, dated 2003).
Where a SMILES comes first, the peptide text is derived from it. [ ]: non-standard residue; d: D form. The star is where a group is joined. Stearoyl = CCCCCCCCCCCCCCCCCC(=O)*; Nle = CCCC[C@H](N)C(=O)O

Legend:
[1] = tested on: panel of 56 cancer cell lines; experiment: NCI "compare analysis", panel of 56 cancer cell lines; format: cell-based
Description: The mean value±S. D. of 8 determinations is indicated; *, p<0.05 using student's t-test. (SN)VIPhyb inhibited the growth of leukemia (CCRF-CEM), HL-60(TB), K-562, MOLT-4, RPMI-8226, SR), non-small cell lung cancer (A549, EKVX, HOP-62, HOP-92, H23, H322M, H460 and H522), colon cancer (COLO205, HCC-2998, HCT-116, HT29, KM12, SW-620), CNS cancer (SF-268, SF-295, SF-539, SNB-19, U251), melanoma (LOX IMVI, MALME-3M, M14, SK-MEL-2, SK-MEL-28, SK-MEL-5, UACC-257, UACC-62), ovarian cancer (IGROV1, OVCAR-3, OVCAR-5, OVCAR-8, SK-OV-3), renal cancer (786-0, A498, CAKI-1, RXF 393, SM12C, TK-l0), prostate cancer (PC-3, DU-145) and breast cancer (MCF-7, MDA-MB-231, HS 578T, MDA-MB-435, MDA-N and T-47D).

[2] = tested on: nonsmall cell lung cancer line; details: 2 mM of the antagonist
Procedure: Assays were performed with cell lines derived from colon cancer and prostate cancer. Proliferation was assessed using the MTS colorimetric assay of mitochondrial function for living cells. The VIP antagonist (stearyl-Nle17-neurotensis 6-11 VIP 7-28) was used.

HT-29 human colon cancer = experiment: MTS cell proliferation assay, SNH and chemotherapy; format: cell-based; details: HT-29, 4 hour treatment with SNH followed by a 24 hour treatment (FIG. 11)
Procedure: NCI-H727 and LNCaP were grown in RPMI 1640 medium supplemented with 10% heat inactivated FCS, L-glutamine and antibiotics. HT-29 and CT-26 were grown in DMEM medium supplemented with 10% heat-inactivated FCS (fetal calf serum), L-glutamine and antibiotics. The cells were cultured in 5% CO2/95% air at […] and used during their exponential growth phase. Routinely, the cells which are adherent, were split when a subconfluent monolayer was formed. In different experiments, various concentration of FCS were used. For growth inhibition experiments, subconfluent adherent cells were washed with PBS and treated with trypsin/versene. The cells were pelleted and resuspended in medium to a final concentration of 75,000 cells/mL for NCI-H727. 50,000 cells/mL for LNCaP and HT-29 and 25000 cells/mL for CT-26. These different concentrations were used in order to avoid confluence in the wells at the end of the experiment and correspond to the different doubling times of the cell lines. […] On day 4, viable cell number was determined by a modified MTT assay i.e., MTS non-radioactive cell proliferation assay (Promega). […] Results were finally expressed as percentage of the control, which was obtained from the samples with no drug treatment. Dose-response curves were plotted using a Sigma-Plot software and statistically analyzed using Student test. […] On day 4 the number of viable cells was determined by MTS assay.

glioblastoma cell lines = experiment: MTT assay, glioblastoma proliferation; format: cell-based
Description: (§1) The effects of VIP receptor antagonists on glioblastoma cell lines were investigated.

[3] = tested on: MCF-7 breast cancer cells; experiment: MTT assay, Taxol with or without SNVIPhyb; format: cell-based; details: 10 μM SNVIPhyb, MTT assay
Description: The ability of SNVIPhyb to inhibit cancer growth was investigated.

MCF-7 cells = experiment: MTT colorimetric assay, breast cancer cells (Example 6); format: cell-based; details: compared with VIPhyb
Procedure: The ability of VIP receptor antagonists to alter the growth of breast cancer cells was investigated in vitro using the MTT colorimetric. The semiautomated MTT assay measures reduction of a tetrazolium compound by tumor cells to formazan. The optical density at 570 nm was determined for 8 wells at each inhibitor concentration. Seeding densities were 5×10^4 cells/well and cells were grown in 96 well plates for 5 days.

cancer cells = experiment: MTS cell proliferation assay, inhibition of cell growth by SNH; format: cell-based
Description: For growth inhibition experiments, subconfluent adherent cells were washed with PBS and treated with trypsin/versene. The cells were pelleted and resuspended in medium to a final concentration of 75,000 cells/mL for NCI-H727. 50,000 cells/mL for LNCaP and HT-29 and 25000 cells/mL for CT-26. These different concentrations were used in order to avoid confluence in the wells at the end of the experiment and correspond to the different doubling times of the cell lines.
On day 0, cells suspensions […] were dispensed using a multi-channel pipet into the individual wells of a 96-well tissue culture plate (Nuncion, Nunc Brand Products). […] Cells were incubated for 24 hours in a humidified atmosphere of 95% air/5% CO2 at 37° C. before treatment. […]
On day 4, viable cell number was determined by a modified MTT assay i.e., MTS non-radioactive cell proliferation assay (Promega). Briefly, […] of freshly prepared MTS/PMS solution was added to each individual well and after 1-3 hours of incubation (the optimal time was determined for each cell line) absorbance at 490 nm was measured using a multiscan plate reader. Results were finally expressed as percentage of the control, which was obtained from the samples with no drug treatment. Dose-response curves were plotted using a Sigma-Plot software and statistically analyzed using Student test. […]

[4] = tested on: VIP receptor (glioblastoma cells); experiment: cAMP in glioblastoma cells, basal and VIP-stimulated; format: cell-based
Description: as §1

In the case of `CCCCCCCCCCCCCCCCCC(=O)N[C@@H](CCCCN)C(=O)N1CCC[C@H]1C(=O)N[C@@H](CCCNC(=N)N)C(=O)N[C@@H](CCCNC(=N)N)C(=O)N1CCC[C@H]1C(=O)N[C@@H](Cc1ccc(O)cc1)C(=O)N[C@H](C(=O)N[C@@H](CC(=O)O)C(=O)N[C@@H](CC(N)=O)C(=O)N[C@@H](Cc1ccc(O)cc1)C(=O)N[C@H](C(=O)N[C@@H](CCCNC(=N)N)C(=O)N[C@@H](CC(C)C)C(=O)N[C@@H](CCCNC(=N)N)C(=O)N[C@@H](CCCCN)C(=O)N[C@@H](CCC(N)=O)C(=O)N[C@@H](CCCC)C(=O)N[C@@H](C)C(=O)N[C@H](C(=O)N[C@@H](CCCCN)C(=O)N[C@@H](CCCCN)C(=O)N[C@@H](Cc1ccc(O)cc1)C(=O)N[C@@H](CC(C)C)C(=O)N[C@@H](CC(N)=O)C(=O)N[C@@H](CO)C(=O)N[C@H](C(=O)N[C@@H](CC(C)C)C(=O)N[C@@H](CC(N)=O)C(N)=O)[C@@H](C)CC)C(C)C)[C@@H](C)O)[C@@H](C)O` [SNH] (Stearoyl-KPRRPYTDNYTRLRKQ[Nle]AVKKYLNSILN-NH2), the “cell lines significantly inhibited” value ([1]; CNS cancer) is reported as 5/5, the “cell lines whose proliferation was significantly inhibited” value ([1]; all cell lines tested) is reported as 51 of 56 and the “cell lines significantly inhibited” value ([1]; breast cancer) is reported as 6/8. The “cell lines significantly inhibited” value ([1]; colon cancer) was 6/7, the “cell lines significantly inhibited” value ([1]; leukemia) was 6/6 and the “cell lines significantly inhibited” value ([1]; melanoma) was 8/8. For the same molecule, the “cell lines significantly inhibited” value ([1]; non-small cell lung cancer) was 7/7, the “cell lines significantly inhibited” value ([1]; ovarian cancer) was 5/6 and the “cell lines significantly inhibited” value ([1]; prostate cancer) was 2/2. The “cell lines significantly inhibited” value ([1]; renal cancer) was 6/7, the growth inhibition [2] was 15-20% and the “effect of the combination with a different schedule” value (HT-29 human colon cancer) was “also effective”. For the same molecule, the “effect on basal proliferation” value (glioblastoma cell lines; 1 μM) was “little effect”, the “interaction with Taxol to inhibit growth” value (glioblastoma cell lines; 1 μM (SN)VIPhybrid with Taxol) was “synergistically interacted” and the “effect on MCF-7 breast cancer proliferation” value [3] was “little effect”. The “relative potency as inhibitor of proliferation” value (MCF-7 cells) was “more potent inhibitor than VIPhyb”, the “inhibition of the growth of cancer cells” value (cancer cells; 10 mM of SNH) was “significantly inhibits” and the “death of the cancer cells” value (cancer cells; 8-10 mM SNH, FCS lower than 2%) was “complete or almost complete death”. For the same molecule, the “order of peptide potency, inhibition of VIP-stimulated cAMP” value ([4]; 10 nM VIP) was “(SN)VIPhybrid>VIP hybrid >PTC4495”, the “effect on basal cAMP” value ([4]; 1 μM) was “no effect” and the “inhibition of the increase in cAMP caused by 10 nM VIP” value ([4]; 1 μM, 10 nM VIP) was “strongly inhibited”.
